Patent US7439242B2, “PPARγ modulators” (Amgen Inc., priority 1998, dated 2008)

Key:
PPARγ = molecular target: T1, PPARγ (Homo sapiens, UniProt P37231); assay: PPARγ ligand binding assay utilizing [3H]-BRL 49653 as the radioligand; details: concentration of test compound required to reduce by 50% the specific binding of [3H]-BRL 49653; methods similar to Lehmann et al.
T1 construct: made in house
T1 sequence (P37231 1-505): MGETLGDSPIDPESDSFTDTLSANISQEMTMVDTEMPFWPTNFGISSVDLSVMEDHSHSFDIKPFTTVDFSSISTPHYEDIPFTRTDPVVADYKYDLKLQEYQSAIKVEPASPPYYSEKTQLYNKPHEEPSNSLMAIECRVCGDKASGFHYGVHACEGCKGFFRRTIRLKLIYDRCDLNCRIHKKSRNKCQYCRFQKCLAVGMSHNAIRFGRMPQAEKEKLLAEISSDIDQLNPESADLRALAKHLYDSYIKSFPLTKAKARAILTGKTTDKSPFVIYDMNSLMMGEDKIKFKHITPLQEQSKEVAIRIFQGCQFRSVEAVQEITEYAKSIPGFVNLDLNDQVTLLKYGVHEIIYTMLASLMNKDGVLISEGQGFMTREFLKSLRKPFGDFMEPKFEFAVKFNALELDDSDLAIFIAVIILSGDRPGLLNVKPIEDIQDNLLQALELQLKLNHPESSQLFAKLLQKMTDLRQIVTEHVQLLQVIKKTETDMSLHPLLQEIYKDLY
From the text: The compounds of the present invention can be evaluated for modulation of the PPARγ receptor using assays such as those described in Jiang, et al., Nature 391:82-86 (1998), Ricote, et al., Nature 391:79-82 (1998) and Lehmann, et al., J. Biol. Chem. 270(12): 12953-12956 (1995). Alternatively, the compounds can be evaluated for their ability to displace radiolabeled BRL 49653 from a PPARγ-GST fusion protein as follows:
PPARγ-GST fusion protein (prepared according to standard procedures), [^3H]—BRL 49653 having 50 Ci/mmol specific activity, Polyfiltronics Unifilter 350 filtration plate and glutathione-Sepharose® beads (from Pharmacia: washed twice with 10×binding buffer in which BSA and DTT can be left out).
Binding buffer (10 mM Tris-HCl, pH 8.0, 50 mM KCl, 10 mM DTT, 0.02% BSA and 0.01% NP-40) is added in 80 microliter amounts to the wells of the filtration plate. The test compound is then added in 10 microliters of DMSO. The PPARγ-GST fusion protein and radiolabeled BRL compound are premixed in binding buffer containing 10 mM DTT and added in 10 microliter amounts to the wells of the plate to provide final concentrations of 1 μg/well of PPARγ-GST fusion protein and 10 nM [^3H]—BRL 49653 compound. The plate is incubated for 15 minutes. Glutathione-agarose bead is added in 50 μL of binding buffer, and the plate is vigorously shaken for one hour. The plate is washed four times with 200 μL/well of binding buffer (without BSA and DTT). The bottom of the plate is sealed and 200 μL/well of scintillation cocktail is added. The top of the plate is then sealed and the radioactivity is determined.
IC50 values are defined as the concentration of test compounds required to reduce by 50% the specific binding of [^3H]-BRL 49653.

| Compound | melting point | IC50 (PPARγ) |
| --- | --- | --- |
| CCOC(=O)c1cc(NC(=O)c2ccc(Cl)cc2Cl)ccc1Oc1cncc(Cl)c1 [Example 41, ethyl 5-(2,4-dichlorobenzamido)-2-(3-chloro-5-pyridyloxy)benzoate] | 125 to 127 °C | – |
| CCOC(=O)c1cc(NS(=O)(=O)c2ccc(C(F)(F)F)cn2)ccc1Oc1cncc(Cl)c1 [Example 21, ethyl 5-(5-trifluoromethyl-2-pyridinesulfonamido)-2-(3-chloro-5-pyridyloxy)benzoate] | 133 to 135 °C | – |
| CCOC(=O)c1cc(NS(=O)(=O)c2ccc(Cl)nc2)ccc1Oc1cncc(Cl)c1 [Example 24, ethyl 5-(6-chloro-3-pyridinesulfonamido)-2-(3-chloro-5-pyridyloxy)benzoate] | 166 to 168 °C | – |
| CCOC(=O)c1cc(NS(=O)(=O)c2cc(Br)ccc2OC)ccc1Oc1cncc(Cl)c1 [Example 3, ethyl 5-(2-methoxy-5-bromobenzenesulfonamido)-2-(3-chloro-5-pyridyloxy)benzoate] | – | 150 nM |
| CCOC(=O)c1cc(S(=O)(=O)Nc2ccc(Cl)cc2Cl)ccc1Oc1cncc(Cl)c1 [Example 40, ethyl 2-(3-chloro-5-pyridyloxy)-5-(2,4-dichlorophenylaminosulfonyl)benzoic acid] | 153 to 155 °C | – |
| O=S(=O)(Nc1ccccc1Oc1cncc(Cl)c1)c1ccc(Cl)cc1Cl [Example 32, 1-(3-chloro-5-pyridyloxy)-2-(2,4-dichlorobenzenesulfonamido)benzene] | 168 to 170 °C | – |
| CCOC(=O)c1cc(NS(=O)(=O)c2c(C)cc(Cl)cc2Cl)ccc1Oc1cncc(Cl)c1 [Example 7, ethyl 5-(2,4-dichloro6-methylbenzenesulfonamido)-2-(3-chloro5-pyridyloxy)benzoate] | – | 800 nM |
| CCOC(=O)c1cc(NS(=O)(=O)c2cc([N+](=O)[O-])ccc2C)ccc1Oc1cncc(Cl)c1 [Example 5, ethyl 5-(2-methyl-5-nitrobenzenesulfonamido)-2-(3-chloro-5-pyridyloxy)benzoate] | – | 800 nM |
| CCOC(=O)c1cc(NS(=O)(=O)c2c(Cl)cccc2Cl)ccc1Oc1cncc(Cl)c1 [Example 6, ethyl 5-(2,6-dichlorobenzenesulfonamido)-2-(3-chloro-5-pyridyloxy)benzoate] | – | 6000 nM |
| CCOC(=O)c1cc(NS(=O)(=O)c2cccnc2)ccc1Oc1cncc(Cl)c1 [Example 25, ethyl 5-(3-pyridinesulfonamido)-2-(3-chloro-5-pyridyloxy)benzoate] | 120 to 122 °C | – |
| O=S(=O)(Nc1cc(C(F)(F)F)ccc1Oc1cncc(Cl)c1)c1ccc(Cl)cc1Cl [Example 43, 4-(3-chloro-5-pyridyloxy)-3-(2,4-dichlorobenzenesulfonamido)benzotrifluoride] | 150 to 151.5 °C | – |
| CCOC(=O)c1cc(NS(=O)(=O)c2ccc(OC)c(OC)c2)ccc1Oc1cncc(Cl)c1 [Example 4, ethyl 5-(3,4-dimethoxy-benzenesulfonamido)-2-(3-chloro-5-pyridyloxy)benzoate] | – | 300 nM |
